Assays:
CB1 receptor [1] = target: T1, CB1 receptor (Mus musculus, UniProt P47746); test: Radioligand displacement assay, mouse brain membranes; assay type: binding
T1 construct: membranes prepared from healthy brain tissue, which is densely populated with CB1 but not CB2 receptors; from tissue; host or cells: mouse brain membranes
Protocol: Binding was initiated by the addition of either the brain membranes (33 μg protein per tube) or the transfected hCB2 cells (25 μg protein per tube).
All assays were performed at 37° C. for 60 min before termination by addition of ice-cold wash buffer (50 mM Tris buffer, 1 mg ml^−1 bovine serum albumin, pH 7.4) and vacuum filtration using a 24-well sampling manifold and GF/B filters that had been soaked in wash buffer at 4° C. for at least 24 h.
Each reaction tube was washed six times with a 1.2 ml aliquot of wash buffer. The filters were oven-dried for 60 min and then placed in 5 ml of scintillation fluid. Radioactivity was quantified by liquid scintillation spectrometry.
Specific binding was defined as the difference between the binding that occurred in the presence and absence of 1 μM unlabelled CP55940.
Values are expressed as means and variability as s.e.mean or as 95% confidence limits.

hCB2 receptors = target: T2, hCB2 receptors (Homo sapiens, UniProt P34972); test: [35S]GTPγS binding assay, CHO-hCB2 cell membranes; assay type: biochemical; settings: for KB-value times less than Ki-value: CHO cell membranes, KB ([35S]GTPγS) versus Ki ([3H]CP55940 displacement)
T2 construct: expressed in transfected cells; host or cells: CHO cells
Protocol: (§1) Nonspecific binding was measured in the presence of 30 μM GTPγS.
The concentrations of [^35S]GTPγS and GDP present in the assay varied depending on whether the assay was conducted with mouse brain or transfected cell membranes. When the assay was conducted with mouse brain membranes, 0.1 nM [^35S]GTPγS and 30 μM GDP were present, whereas the corresponding concentrations present when the assay was conducted with transfected cell membranes were 1 nM and 320 μM respectively.
Additionally, mouse brain membranes were preincubated for 30 minutes at 30° C. with 0.5 U ml^−1 adenosine deaminase to remove endogenous adenosine. Agonists and antagonists were stored as a stock solution of 1 or 10 mM in DMSO, the vehicle concentration in all assay tubes being 0.11% DMSO.
Net agonist-stimulated [^35S]GTPγS binding values were calculated by subtracting basal binding values (obtained in the absence of agonist) from agonist-stimulated values (obtained in the presence of agonist) as detailed elsewhere (Ross et al., 1999a).
(§2) The apparent dissociation constant (KB) values for antagonism of agonists by THCV in the vas deferens or [^35S]GTPγS binding assay have been calculated by Schild analysis from the concentration ratio, defined as the concentration of an agonist that elicits a response of a particular size in the presence of a competitive reversible antagonist at a concentration, B, divided by the concentration of the same agonist that produces an identical response in the absence of the antagonist.
(§3) Mean values have been compared using Student's two-tailed t-test for unpaired data or one-way analysis of variance (ANOVA) followed by Dunnett's test (GraphPad Prism). A P-value <0.05 was considered to be significant.

vas deferens = test: Electrically-evoked twitch response of the vas deferens; settings: at concentrations that antagonise cannabinoids
From the text: Inhibition of the electrically-evoked twitch response of the vas deferens has been expressed in percentage terms and this has been calculated by comparing the amplitude of the twitch response after each addition of a twitch inhibitor with its amplitude immediately before the first addition of the inhibitor. Contractile responses to phenylephrine and β,γ-methylene-ATP have been expressed as increases in tension (g).
as §2

CB1 receptor [2] = target: T1, CB1 receptor; test: [35S]GTPγS binding assay, mouse brain membranes; assay type: biochemical
Protocol: as §1
The concentrations of [^35S]GTPγS and GDP present in the assay varied depending on whether the assay was conducted with mouse brain or transfected cell membranes.
Additionally, mouse brain membranes were preincubated for 30 minutes at 30° C. with 0.5 U ml^−1 adenosine deaminase to remove endogenous adenosine.
as §2, §3

[3] = clinical study, at least some of the patients; cited from earlier work

T2 sequence (P34972 whole entry): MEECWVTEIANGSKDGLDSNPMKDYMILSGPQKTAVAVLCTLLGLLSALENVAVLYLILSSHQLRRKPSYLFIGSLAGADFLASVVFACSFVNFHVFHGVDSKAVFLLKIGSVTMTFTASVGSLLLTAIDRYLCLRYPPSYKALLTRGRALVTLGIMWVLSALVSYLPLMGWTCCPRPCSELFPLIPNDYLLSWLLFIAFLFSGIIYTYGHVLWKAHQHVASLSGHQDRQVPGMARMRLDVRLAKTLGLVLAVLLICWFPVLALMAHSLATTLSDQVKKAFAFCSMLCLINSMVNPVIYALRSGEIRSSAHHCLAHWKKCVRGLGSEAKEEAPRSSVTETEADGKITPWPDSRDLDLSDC
T1 sequence (P47746 whole entry): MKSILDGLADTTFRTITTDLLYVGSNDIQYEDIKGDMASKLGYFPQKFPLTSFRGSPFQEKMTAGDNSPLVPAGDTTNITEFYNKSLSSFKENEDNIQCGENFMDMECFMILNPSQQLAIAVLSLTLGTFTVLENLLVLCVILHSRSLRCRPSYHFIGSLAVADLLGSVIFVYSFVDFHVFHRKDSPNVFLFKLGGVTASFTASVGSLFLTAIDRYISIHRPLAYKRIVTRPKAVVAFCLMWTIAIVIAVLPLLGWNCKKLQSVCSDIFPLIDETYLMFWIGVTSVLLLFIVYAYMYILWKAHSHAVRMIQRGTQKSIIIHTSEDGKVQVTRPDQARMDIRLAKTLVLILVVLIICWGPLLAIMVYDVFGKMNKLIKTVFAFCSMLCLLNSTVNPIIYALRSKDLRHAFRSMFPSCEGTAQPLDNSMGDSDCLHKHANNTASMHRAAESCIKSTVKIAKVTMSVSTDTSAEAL

CCCCCCC(C)(C)c1ccc([C@@H]2C[C@H](O)CC[C@H]2CCCO)c(O)c1 [[^3H]CP55940]
Kd (CB1 receptor [1]): 2.31 nM

SR144528 [reference compound]
KB-value times less than Ki-value (hCB2 receptors): 15 times

CCCc1cc(O)c2c(c1)OC(C)(C)[C@@H]1CCC(C)=C[C@@H]21 [THCV, tetrahydrocannabidivarin]
effect by itself on the ability of [35S]GTPγS to bind (hCB2 receptors; CHO-hCB2 cell membranes, at concentrations that antagonise cannabinoids): did not affect | effect by itself on the amplitude of the electrically-evoked contractions (vas deferens): did not affect | effect by itself on the ability of [35S]GTPγS to bind (CB1 receptor [2]; mouse brain membranes, at concentrations that antagonise cannabinoids): did not affect

C=C(C)[C@@H]1CCC(C)=C[C@H]1c1c(O)cc(CCCCC)cc1O [CBD, cannabidiol]
KB-value times less than Ki-value (hCB2 receptors): 65 times | inhibitory effect on [35S]GTPγS binding compared with SR141716A (CB1 receptor [2]; 10 μM, both compounds, mouse brain membrane): greatly exceeded that of SR141716A | inhibition of [35S]GTPγS binding to the mouse brain membrane (CB1 receptor [2]; compound alone at 1 and 10 μM): significant inhibition

Cc1c(C(=O)NN2CCCCC2)nn(-c2ccc(Cl)cc2Cl)c1-c1ccc(Cl)cc1 [SR141716A]
depression in patients enrolled in the trials [3]: significant increase in depression
